US9765043B2, “Salts of potassium ATP channel openers and uses thereof” (Essentialis, Inc., priority 2012, dated 2017)
“Also recorded” adds a separate entry of the source. Where two headings read alike, the source gives them in different places.

Columns and labels:
[1] = Excipient compatibility study for diazoxide choline salt; type: physicochemical
[2] = Slurry studies of solid form inter-conversion; type: physicochemical; conditions: for propensity of inter-conversion of the solid form in slurry: room temperature, absence of light, up to 14 days, solvents per substance (water, IPA, CH2Cl2, toluene, n-heptane, EtOAc, MeCN, THF, t-AmOH); for Slurries: diazoxide potassium salt, room-temperature slurry
[3] = Moisture sorption analysis; type: physicochemical; conditions: 25° C.
Procedure: Moisture Sorption Analysis was performed with a Hiden IGAsorp Moisture Sorption Instrument. […] The samples were allowed to equilibrate to an asymptotic weight at each point for a maximum of 4 hours. […] The resulting samples after desorption were dried at 80° C. for two hours and analyzed by XRPD.

[4] = Form conversion and degradation under thermal stress
Procedure: Studies were also conducted to evaluate the likelihood for conversion and degradation under thermal stress.

[5] = test system: Zucker rats; conditions: oral 1-10 mg/kg/day for 14 days; cited from earlier work
[6] = test system: Zucker Diabetic Fatty (ZDF) rats; conditions: 150 mg/kg/day, 8 weeks; cited from earlier work
[7] = test system: hypertriglyceridemic patients; assay: Clinical study in 12 hypertriglyceridemic patients (formulation U / K′ crossover): lipids; type: in vivo, human; conditions: 435 mg/day diazoxide choline once per day, 15 days
Procedure: A clinical study was conducted in 12 hypertriglyceridemic patients. […] Treatment continued for 16 days. The endpoint of the study was percentage change from baseline to day 15 of triglycerides, total cholesterol, LDL cholesterol, HDL cholesterol and non-HDL cholesterol. Lipid parameters were measured at baseline and on days 7 and 15. Blood pressure was collected at multiple time points.

[8] = test system: healthy volunteers
Procedure: (§1) A randomized double-blind, placebo-controlled clinical trial was conducted in 24 healthy volunteers. They were randomized in a 2:1 ratio of treated to placebo. […] The dose was administered once per day in the morning for a period of 7 days. A number of lipid parameters were measured at baseline and again on day 7 including fasting triglycerides, total cholesterol, LDL cholesterol, HDL cholesterol, and non-HDL cholesterol. Additionally, blood pressure was measured on a daily basis.

[9] = test system: healthy volunteers; remark: listed apart in the source
Procedure: as §1
In PK008, the dose was administered as one and one ½ tablet formulation K′.

[10] = 60° C., closed environment, protected from light, 7 and 14 days, XRPD, DSC, HPLC
[11] = Study EC004, 435 mg, 7 days, Baseline
[12] = Study EC004, 435 mg, 7 days, End of treatment
[13] = Study TR002, 508 mg, 49 days, Baseline
[14] = Study TR002, 508 mg, 49 days, End of treatment

CC1=Nc2ccc(Cl)cc2S(=O)(=O)N1 [Diazoxide Control]
1 Month 40° C./75% RH % (w/w) ([1]; one-month storage 40° C./75% RH): 99.0 % (w/w)
1 Month 50° C. % (w/w) ([1]; one-month storage 50° C.): 99.4 % (w/w)

CC1=NS(=O)(=O)c2cc(Cl)ccc2[N-]1.[K+] [Potassium diazoxide salt]
propensity of inter-conversion of the solid form in slurry [2]: no propensity of inter-conversion
water absorbed at 60% RH [3]: 5.4 wt %
water absorbed at 90% RH [3]: 38.3 wt %
conversion and degradation under thermal stress [4, 10]: did not show any significant degradation

CC1=NS(=O)(=O)c2cc(Cl)ccc2[N-]1.[Na+] [Sodium diazoxide salt]
propensity of inter-conversion of the solid form in slurry [2]: no propensity of inter-conversion
water absorbed at 60% RH [3]: 1.2 wt %
water absorbed at 80% RH ([3]; 80% RH): 6.6 wt %
conversion and degradation under thermal stress [4, 10]: little propensity to change form or degrade

N#CNC(=NCCc1ccccc1Cl)c1cncc(N)c1 [KRN4884]
serum triglyceride levels [5]: dose dependently reduce serum triglyceride levels

C1COCCO1.CC1=NS(=O)(=O)c2cc(Cl)ccc2[N-]1.CC1=NS(=O)(=O)c2cc(Cl)ccc2[N-]1.[K+].[K+] [Diazoxide potassium salt Form F]
Slurries [2]: Converted to Form D
propensity of inter-conversion of the solid form in slurry [2]: readily converted to Form D in all slurry solvents utilized; also recorded: conversion to Form D was observed in all solvents
Moisture sorption (hygroscopicity) [3]: hygroscopic solid
Thermal ([4]; diazoxide potassium salt, thermal stress, 7 days): Stable (7 days)

CC1=Nc2ccc(Cl)cc2S(=O)(=O)N1 [Diazoxide, 7-chloro-3-methyl-2H-1,2,4-benzothiadiazine 1,1 dioxide, reference compound]
hepatic lipid contents [6]: decreased hepatic triglycerides, long chain acyl-CoA and cholesterol contents
propensity of inter-conversion of the solid form in slurry [2]: did not convert to alternate crystal forms
water absorbed at 60% RH [3]: approximately 0.04 wt %
water absorbed at 90% RH [3]: ~0.20 wt %
Moisture sorption (hygroscopicity) ([3]; listed as Free form): no hysteresis
conversion and degradation under thermal stress [4, 10]: no conversion or degradation

CC1=NS(=O)(=O)c2cc(Cl)ccc2[N-]1.CC1=NS(=O)(=O)c2cc(Cl)ccc2[N-]1.O.[K+].[K+] [Diazoxide potassium salt Form D]
Slurries [2]: Converted to Form D

CC1=Nc2ccc(Cl)cc2S(=O)(=O)[N-]1.C[N+](C)(C)CCO [Choline diazoxide salt]
lipid response [7]: marked reductions in triglycerides, total cholesterol, LDL cholesterol, and nonHDL cholesterol and a marked increase in HDL cholesterol
propensity of inter-conversion of the solid form in slurry ([2]; listed as choline salt): no propensity of inter-conversion
conversion and degradation under thermal stress [4]: did not show any significant degradation
HDL cholesterol, mean ± SEM ([8]; 300 mg diazoxide/day, Baseline): 49 ± 3.3 mg/dL
LDL cholesterol, mean ± SEM ([8]; 300 mg diazoxide/day, Baseline): 111 ± 5.8 mg/dL
Total cholesterol, mean ± SEM ([8]; 300 mg diazoxide/day, Baseline): 175 ± 7.5 mg/dL
Triglycerides, mean ± SEM ([8]; 300 mg diazoxide/day, Baseline): 76 ± 7.8 mg/dL
non-HDL cholesterol, mean ± SEM ([8]; 300 mg diazoxide/day, Baseline): 126 ± 6.6 mg/dL
HDL cholesterol, Percent change from baseline ([8]; 300 mg diazoxide/day, Day 7): 8.2%
HDL cholesterol, mean ± SEM ([8]; 300 mg diazoxide/day, Day 7): 53 ± 2.9 mg/dL
LDL cholesterol, Percent change from baseline ([8]; 300 mg diazoxide/day, Day 7): −5.4%
LDL cholesterol, mean ± SEM ([8]; 300 mg diazoxide/day, Day 7): 105 ± 4.9 mg/dL
Total cholesterol, Percent change from baseline ([8]; 300 mg diazoxide/day, Day 7): −2.3%
Total cholesterol, mean ± SEM ([8]; 300 mg diazoxide/day, Day 7): 171 ± 6.4 mg/dL
Triglycerides, Percent change from baseline ([8]; 300 mg diazoxide/day, Day 7): −13.2%
Triglycerides, mean ± SEM ([8]; 300 mg diazoxide/day, Day 7): 66 ± 3.9 mg/dL
non-HDL cholesterol, Percent change from baseline ([8]; 300 mg diazoxide/day, Day 7): −6.3%
non-HDL cholesterol, mean ± SEM ([8]; 300 mg diazoxide/day, Day 7): 118 ± 5.5 mg/dL
reduction in total cholesterol, LDL cholesterol and non-HDL cholesterol vs placebo arm ([8]; baseline to day 7, 300 mg/day diazoxide as formulation U): greater for each lipid parameter than the corresponding reduction in the placebo arm
Diastolic blood pressure [9, 11]: 69.4 mmHg
Systolic blood pressure [9, 11]: 113.2 mmHg
Diastolic blood pressure [9, 12]: 63.2 mmHg
Systolic blood pressure [9, 12]: 113.5 mmHg
Diastolic blood pressure [9, 13]: 77.7 mmHg
Systolic blood pressure [9, 13]: 118.1 mmHg
Diastolic blood pressure [9, 14]: 67.0 mmHg
Systolic blood pressure [9, 14]: 117.0 mmHg

CC1=Nc2ccc(Cl)cc2S(=O)(=O)[N-]1.C[N+](C)(C)CCO [Diazoxide choline salt Form B]
propensity of inter-conversion of the solid form in slurry ([2]; listed as Form B): form conversion was not observed; also recorded: Stable after 14 days in
water absorbed at 60% RH ([3]; listed as Form B): 7.4 wt %
conversion and degradation under thermal stress [4]: Stable after 14 days at

CC1=Nc2ccc(Cl)cc2S(=O)(=O)[N-]1.C[N+](C)(C)CCO [Diazoxide choline salt Form A]
propensity of inter-conversion of the solid form in slurry ([2]; listed as Form A): conversion to Form B was observed after seven days; also recorded: readily converted to Form B in all slurry solvents utilized; also recorded: Converted to Form B after
Moisture sorption (hygroscopicity) [3]: hygroscopic solid
water absorbed at 60% RH ([3]; listed as Form A): 2.4 wt %
conversion and degradation under thermal stress [4]: Started to convert to Form
